Patent US20160287589A1, “SUBSTITUTED-IMIDAZOPYRIDAZINES” (BAYER PHARMA AKTIENGESELLSCHAFT, priority 2013, published 2016)
Each block holds one compound with its values, some of them ahead of it.

What was measured:
MKNK1 [1] = target: T1, MKNK1 (Homo sapiens, UniProt Q9BUB5, T385D); test: MKNK1 kinase high ATP assay (TR-FRET-based); format: biochemical; details: 2 mM ATP, 15 min preincubation
T1 construct: GST (N); purchased Carna Biosciences 02-145; host or cells: insect cells (baculovirus expression system)
Method in brief: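 TR-FRET read-out (anti-phospho-S6 Ser236 antibody, Eu/XL665) of biotin-peptide phosphorylation (0.06 μM) at high ATP (2 mM final). Enzyme was GST-MKNK1 full length, T344D, pre-bound to compound for 15 min before a 30 min reaction at 22 °C, pH 7.5. Inhibition scaled between no-inhibitor (0%) and no-enzyme (100%) wells.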

MKNK1 [2] = target: T1, MKNK1; test: MKNK1 kinase assay (MKNK1 TR-FRET assay); format: biochemical; details: 10 μM ATP, 15 min preincubation

T1 sequence (Q9BUB5 1-424 isoform Q9BUB5-2 T344D): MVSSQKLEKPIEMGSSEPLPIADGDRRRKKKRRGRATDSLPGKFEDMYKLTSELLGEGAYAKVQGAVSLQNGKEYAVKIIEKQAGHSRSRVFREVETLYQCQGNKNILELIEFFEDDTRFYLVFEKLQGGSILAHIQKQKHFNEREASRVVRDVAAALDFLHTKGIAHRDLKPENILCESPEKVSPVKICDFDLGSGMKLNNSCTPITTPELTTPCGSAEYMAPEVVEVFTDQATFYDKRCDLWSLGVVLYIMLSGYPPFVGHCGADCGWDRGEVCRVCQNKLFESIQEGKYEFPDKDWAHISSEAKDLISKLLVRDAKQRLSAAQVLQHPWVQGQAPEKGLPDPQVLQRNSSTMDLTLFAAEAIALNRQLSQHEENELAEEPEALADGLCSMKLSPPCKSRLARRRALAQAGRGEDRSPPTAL

SMILES: COc1nccc2oc(-c3cnc4ccc(OCC5CCCC(=O)N5)nn34)cc12 (stereo not drawn) [IV-9, 6-({[3-(4-Methoxyfuro[3,2-c]pyridin-2-yl)imidazo[1,2-b]pyridazin-6-yl]oxy}-methyl)piperidin-2-one]
- IC50 (MKNK1 [1]; Table 2d): 9 nM
- IC50 (MKNK1 [2]; Table 1d): 3 nM

SMILES: COc1ccc2ncc(-c3cc4c(N5CCN(c6ccccc6)CC5)nccc4o3)n2n1 [III-91, 6-Methoxy-3-[4-(4-phenylpiperazin-1-yl)furo[3,2-c]pyridin-2-yl]imidazo[1,2-b]pyridazine]
- IC50 (MKNK1 [1]; Table 2c): 18.3 nM
- IC50 (MKNK1 [2]; Table 1c): 8.4 nM

SMILES: CC(=O)N1CCN(c2nccc3oc(-c4cnc5ccc(OCCCS(C)(=O)=O)nn45)cc23)CC1 [III-51, 1-[4-(2-{6-[3-(Methylsulfonyl)propoxy]imidazo[1,2-b]pyridazin-3-yl}furo[3,2-c]pyridin-4-yl)piperazin-1-yl]ethanone]
- IC50 (MKNK1 [1]; Table 2c): 14.2 nM
- IC50 (MKNK1 [2]; Table 1c): 7.3 nM

SMILES: COC[C@H]1CCCN1c1cccc2oc(-c3cnc4ccc(OC)nn34)cc12 [II-10, 6-Methoxy-3-{4-[(2R)-2-(methoxymethyl)pyrrolidin-1-yl]-1-benzofuran-2-yl}-imidazo[1,2-b]pyridazine]
- IC50 (MKNK1 [1]; Table 2b): 5 nM
- IC50 (MKNK1 [2]; Table 1b): 6.5 nM

SMILES: CCN(CCOC)c1nccc2oc(-c3cnc4ccc(OCCCS(C)(=O)=O)nn34)cc12 [III-50, N-Ethyl-N-(2-methoxyethyl)-2-{6-[3-(methylsulfonyl)propoxy]imidazo[1,2-b]pyridazin-3-yl}furo[3,2-c]pyridin-4-amine]
- IC50 (MKNK1 [1]; Table 2c): 0.5 nM
- IC50 (MKNK1 [2]; Table 1c): 1.4 nM

SMILES: COc1ccc2ncc(-c3cc4c(N5CCO[C@H](C)C5)nccc4o3)n2n1 [III-120, 6-methoxy-3-{4-[(2R)-2-methylmorpholin-4-yl]furo[3,2-c]pyridin-2-yl}imidazo[1,2-b]pyridazine]
- IC50 (MKNK1 [1]; Table 2c): 7.4 nM
- IC50 (MKNK1 [2]; Table 1c): 11.2 nM

SMILES: COCCN(C)c1nccc2oc(-c3cnc4ccc(OC[C@H]5CCC(=O)N5)nn34)cc12 [III-81, (5R)-5-{[(3-{4-[(2-Methoxyethyl)(methyl)amino]furo[3,2-c]pyridin-2-yl}imidazo[1,2-b]pyridazin-6-yl)oxy]methyl}pyrrolidin-2-one]
- IC50 (MKNK1 [1]; Table 2c): 0.5 nM
- IC50 (MKNK1 [2]; Table 1c): 0.3 nM

SMILES: O=C1CC[C@H](COc2ccc3ncc(-c4cc5c(N6CCNCC6)nccc5o4)n3n2)N1 [III-71, (5R)-5-[({3-[4-(Piperazin-1-yl)furo[3,2-c]pyridin-2-yl]imidazo[1,2-b]pyridazin-6-yl}oxy)methyl]pyrrolidin-2-one]
- IC50 (MKNK1 [1]; Table 2c): 1.4 nM
- IC50 (MKNK1 [2]; Table 1c): 2 nM

SMILES: C[C@@H]1CN(c2cccc3oc(-c4cnc5ccc(O[C@H]6C[C@H](N)C6)nn45)cc23)CCO1 [II-73, trans-3-[(3-{4-[(2R)-2-methylmorpholin-4-yl]-1-benzofuran-2-yl}imidazo[1,2-b]pyridazin-6-yl)oxy]cyclobutanamine]
- IC50 (MKNK1 [1]; Table 2b): 47.6 nM
- IC50 (MKNK1 [2]; Table 1b): 42.4 nM

SMILES: C[C@H](N)COc1ccc2ncc(-c3cc4c(N5CCOC(C)(C)C5)cccc4o3)n2n1 [II-61, (2S)-1-({3-[4-(2,2-dimethylmorpholin-4-yl)-1-benzofuran-2-yl]imidazo[1,2-b]pyridazin-6-yl}oxy)propan-2-amine]
- IC50 (MKNK1 [1]; Table 2b): 66.2 nM
- IC50 (MKNK1 [2]; Table 1b): 23.6 nM

SMILES: CC(=O)NCCOc1ccc2ncc(-c3cc4ccccc4o3)n2n1 [Example I-28, N-(2-{[3-(1-Benzofuran-2-yl)imidazo[1,2-b]pyridazin-6-yl]oxy}ethyl)acetamide]
- IC50 (MKNK1 [1]; Table 2a): 29.8 nM
- IC50 (MKNK1 [2]; Table 1a): 9.1 nM

SMILES: COc1nccc2oc(-c3cnc4ccc(OC[C@@H]5CCC(=O)N5)nn34)cc12 [IV-3, (5S)-5-({[3-(4-Methoxyfuro[3,2-c]pyridin-2-yl)imidazo[1,2-b]pyridazin-6-yl]-oxy}methyl)pyrrolidin-2-one]
- IC50 (MKNK1 [1]; Table 2d): 28 nM
- IC50 (MKNK1 [2]; Table 1d): 10 nM

SMILES: O=C1CC[C@@H](COc2ccc3ncc(-c4cc5ccccc5o4)n3n2)N1 [Example I-7, (5S)-5-({[3-(1-Benzofuran-2-yl)imidazo[1,2-b]pyridazin-6-yl]oxy}methyl)-pyrrolidin-2-one]
- IC50 (MKNK1 [1]; Table 2a): 9.2 nM
- IC50 (MKNK1 [2]; Table 1a): 3.1 nM

SMILES: CC(=O)N1CCOC(COc2ccc3ncc(-c4cc5ccccc5o4)n3n2)C1 (stereo not drawn) [Example I-27, 1-[2-({[3-(1-Benzofuran-2-yl)imidazo[1,2-b]pyridazin-6-yl]oxy}methyl)-morpholin-4-yl]ethanone]
- IC50 (MKNK1 [1]; Table 2a): 23.5 nM
- IC50 (MKNK1 [2]; Table 1a): 7.3 nM

SMILES: O=C(NCCOc1ccc2ncc(-c3cc4ccccc4o3)n2n1)c1cccs1 [Example I-64, N-(2-{[3-(1-Benzofuran-2-yl)imidazo[1,2-b]-pyridazin-6-yl]oxy}ethyl)thiophene-2-carboxamide]
- IC50 (MKNK1 [1]; Table 2a): 10.5 nM
- IC50 (MKNK1 [2]; Table 1a): 4.7 nM

SMILES: O=C1CC[C@H](COc2ccc3ncc(-c4cc5c(N6CCOCC6)nccc5o4)n3n2)N1 [III-68, (5R)-5-[({3-[4-(Morpholin-4-yl)furo[3,2-c]pyridin-2-yl]imidazo[1,2-b]pyridazin-6-yl}oxy)methyl]pyrrolidin-2-one]
- IC50 (MKNK1 [1]; Table 2c): 0.7 nM
- IC50 (MKNK1 [2]; Table 1c): 0.5 nM

SMILES: CN1CCN(c2nccc3oc(-c4cnc5ccc(O[C@H]6C[C@@H](N)C6)nn45)cc23)CC1 [III-96, cis-3-({3-[4-(4-Methylpiperazin-1-yl)furo[3,2-c]pyridin-2-yl]imidazo[1,2-b]pyridazin-6-yl}oxy)cyclobutanamine]
- IC50 (MKNK1 [1]; Table 2c): 3.4 nM
- IC50 (MKNK1 [2]; Table 1c): 3.9 nM

SMILES: O=C(c1ccsc1)N1CCC[C@H]1CCOc1ccc2ncc(-c3cc4ccccc4o3)n2n1 [Example I-57, [(2S)-2-(2-{[3-(1-Benzofuran-2-yl)imidazo[1,2-b]-pyridazin-6-yl]oxy}ethyl)pyrrolidin-1-yl](thiophen-3-yl)methanone]
- IC50 (MKNK1 [1]; Table 2a): 3.9 nM
- IC50 (MKNK1 [2]; Table 1a): 1.9 nM

Results, then the compound that gave them:

- IC50 (MKNK1 [1]; Table 2b): 25.7 nM
- IC50 (MKNK1 [2]; Table 1b): 23 nM
SMILES: C[C@@H](N)COc1ccc2ncc(-c3cc4c(N5CCOC[C@@H]5C)cccc4o3)n2n1 [II-75, (2R)-1-[(3-{4-[(3S)-3-methylmorpholin-4-yl]-1-benzofuran-2-yl}imidazo[1,2-b]pyridazin-6-yl)oxy]propan-2-amine]

- IC50 (MKNK1 [1]; Table 2c): 1 nM
- IC50 (MKNK1 [2]; Table 1c): 2.4 nM
SMILES: O=C1CC[C@H](COc2ccc3ncc(-c4cc5c(N6CCCCC6)nccc5o4)n3n2)N1 [III-62, (5R)-5-[({3-[4-(Piperidin-1-yl)furo[3,2-c]pyridin-2-yl]imidazo[1,2-b]pyridazin-6-yl}oxy)methyl]pyrrolidin-2-one]

- IC50 (MKNK1 [1]; Table 2a): 40.5 nM
- IC50 (MKNK1 [2]; Table 1a): 15.5 nM
SMILES: COc1ccc2oc(-c3cnc4ccc(OCCN5CCNC5=O)nn34)cc2c1 [Example I-33, 1-(2-{[3-(5-Methoxy-1-benzofuran-2-yl)imidazo[1,2-b]pyridazin-6-yl]oxy}ethyl)imidazolidin-2-one]

- IC50 (MKNK1 [1]; Table 2b): 0.4 nM
- IC50 (MKNK1 [2]; Table 1b): 0.4 nM
SMILES: O=C1CC[C@H](COc2ccc3ncc(-c4cc5c(N6CCNCC6)cccc5o4)n3n2)N1 [II-19, (5R)-5-[({3-[4-(Piperazin-1-yl)-1-benzofuran-2-yl]imidazo[1,2-b]pyridazin-6-yl}-oxy)methyl]pyrrolidin-2-one]

- IC50 (MKNK1 [1]; Table 2c): 3.6 nM
- IC50 (MKNK1 [2]; Table 1c): 1.5 nM
SMILES: CS(=O)(=O)CCCOc1ccc2ncc(-c3cc4c(N5CCC(CO)CC5)nccc4o3)n2n1 [III-57, [1-(2-{6-[3-(Methylsulfonyl)propoxy]imidazo[1,2-b]pyridazin-3-yl}furo[3,2-c]pyridin-4-yl)piperidin-4-yl]methanol]

- IC50 (MKNK1 [1]; Table 2a): 2.3 nM
- IC50 (MKNK1 [2]; Table 1a): 1 nM
SMILES: O=C(C1CC1)N1CCC[C@H]1CCOc1ccc2ncc(-c3cc4ccccc4o3)n2n1 [Example I-1, [(2S)-2-(2-{[3-(1-Benzofuran-2-yl)imidazo[1,2-b]pyridazin-6-yl]oxy}ethyl)-pyrrolidin-1-yl](cyclopropyl)methanone]

- IC50 (MKNK1 [1]; Table 2b): 196 nM
- IC50 (MKNK1 [2]; Table 1b): 110 nM
SMILES: CC(C)(C)OC(=O)N[C@H]1C[C@H](Oc2ccc3ncc(-c4cc5c(N6CCOCC6)cccc5o4)n3n2)C1 [II-3, tert-Butyl [trans-3-({3-[4-(morpholin-4-yl)-1-benzofuran-2-yl]imidazo[1,2-b]-pyridazin-6-yl}oxy)cyclobutyl]carbamate]

- IC50 (MKNK1 [1]; Table 2c): 3.3 nM
- IC50 (MKNK1 [2]; Table 1c): 1.6 nM
SMILES: CN(C)[C@@H]1CCN(c2nccc3oc(-c4cnc5ccc(O[C@H]6C[C@H](N)C6)nn45)cc23)C1 [III-98, (3R)-1-(2-{6-[(trans-3-Aminocyclobutyl)oxy]imidazo[1,2-b]pyridazin-3-yl}furo[3,2-c]pyridin-4-yl)-N,N-dimethylpyrrolidin-3-amine]

- IC50 (MKNK1 [1]; Table 2b): 0.7 nM
- IC50 (MKNK1 [2]; Table 1b): 5.1 nM
SMILES: COc1ccc2ncc(-c3cc4c(N5CCNC[C@@H]5C)cccc4o3)n2n1 [II-28, 6-methoxy-3-{4-[(2S)-2-methylpiperazin-1-yl]-1-benzofuran-2-yl}imidazo[1,2-b]pyridazine]

- IC50 (MKNK1 [1]; Table 2a): 15.4 nM
- IC50 (MKNK1 [2]; Table 1a): 4.5 nM
SMILES: COc1cccc2oc(-c3cnc4ccc(OC[C@@H]5CCC(=O)N5)nn34)cc12 [Example I-19, (5S)-5-({[3-(4-Methoxy-1-benzofuran-2-yl)imidazo[1,2-b]pyridazin-6-yl]oxy}-methyl)pyrrolidin-2-one]

- IC50 (MKNK1 [1]; Table 2c): 12.8 nM
- IC50 (MKNK1 [2]; Table 1c): 11.6 nM
SMILES: C[C@@H]1CN(c2nccc3oc(-c4cnc5ccc(OC[C@@H](C)N)nn45)cc23)CCO1 [III-121, (2R)-1-[(3-{4-[(2R)-2-methylmorpholin-4-yl]furo[3,2-c]pyridin-2-yl}imidazo[1,2-b]pyridazin-6-yl)oxy]propan-2-amine]

- IC50 (MKNK1 [1]; Table 2c): 45 nM
- IC50 (MKNK1 [2]; Table 1c): 16.6 nM
SMILES: C[C@H](N)COc1ccc2ncc(-c3cc4c(N5CCN(c6ccccc6)CC5)nccc4o3)n2n1 [III-23, (2S)-1-({3-[4-(4-Phenylpiperazin-1-yl)furo[3,2-c]pyridin-2-yl]imidazo[1,2-b]pyridazin-6-yl}oxy)propan-2-amine]
